Values after ≈ are worked out from the molar mass of the structure shown. Values belong to the compound of their own block, whether it stands above or below them.
Assays:
[1] = target: Epidermal growth factor receptor (Homo sapiens, UniProt P00533); experiment: Inhibition of EGFR (unknown origin) by DiscoverX KINOMEscan assay
HepG2 [2] = experiment: Antiproliferative activity against human HepG2 cells assessed as cell growth inhibition measured for 24 hrs by MTT assay; type: functional, cell-based; conditions: HepG2, 24 h
A549 [3] = experiment: Antiproliferative activity against human A549 cells assessed as cell growth inhibition measured for 24 hrs by MTT assay; type: functional, cell-based; conditions: A549, 24 h
MCF7 [4] = experiment: Antiproliferative activity against human MCF7 cells assessed as cell growth inhibition measured for 24 hrs by MTT assay; type: functional, cell-based; conditions: MCF7, 24 h
[5] = target: T1, Vascular endothelial growth factor receptor 2 (Homo sapiens, UniProt P35968); experiment: Inhibition of VEGFR2 (unknown origin)
T1 sequence (P35968 whole entry): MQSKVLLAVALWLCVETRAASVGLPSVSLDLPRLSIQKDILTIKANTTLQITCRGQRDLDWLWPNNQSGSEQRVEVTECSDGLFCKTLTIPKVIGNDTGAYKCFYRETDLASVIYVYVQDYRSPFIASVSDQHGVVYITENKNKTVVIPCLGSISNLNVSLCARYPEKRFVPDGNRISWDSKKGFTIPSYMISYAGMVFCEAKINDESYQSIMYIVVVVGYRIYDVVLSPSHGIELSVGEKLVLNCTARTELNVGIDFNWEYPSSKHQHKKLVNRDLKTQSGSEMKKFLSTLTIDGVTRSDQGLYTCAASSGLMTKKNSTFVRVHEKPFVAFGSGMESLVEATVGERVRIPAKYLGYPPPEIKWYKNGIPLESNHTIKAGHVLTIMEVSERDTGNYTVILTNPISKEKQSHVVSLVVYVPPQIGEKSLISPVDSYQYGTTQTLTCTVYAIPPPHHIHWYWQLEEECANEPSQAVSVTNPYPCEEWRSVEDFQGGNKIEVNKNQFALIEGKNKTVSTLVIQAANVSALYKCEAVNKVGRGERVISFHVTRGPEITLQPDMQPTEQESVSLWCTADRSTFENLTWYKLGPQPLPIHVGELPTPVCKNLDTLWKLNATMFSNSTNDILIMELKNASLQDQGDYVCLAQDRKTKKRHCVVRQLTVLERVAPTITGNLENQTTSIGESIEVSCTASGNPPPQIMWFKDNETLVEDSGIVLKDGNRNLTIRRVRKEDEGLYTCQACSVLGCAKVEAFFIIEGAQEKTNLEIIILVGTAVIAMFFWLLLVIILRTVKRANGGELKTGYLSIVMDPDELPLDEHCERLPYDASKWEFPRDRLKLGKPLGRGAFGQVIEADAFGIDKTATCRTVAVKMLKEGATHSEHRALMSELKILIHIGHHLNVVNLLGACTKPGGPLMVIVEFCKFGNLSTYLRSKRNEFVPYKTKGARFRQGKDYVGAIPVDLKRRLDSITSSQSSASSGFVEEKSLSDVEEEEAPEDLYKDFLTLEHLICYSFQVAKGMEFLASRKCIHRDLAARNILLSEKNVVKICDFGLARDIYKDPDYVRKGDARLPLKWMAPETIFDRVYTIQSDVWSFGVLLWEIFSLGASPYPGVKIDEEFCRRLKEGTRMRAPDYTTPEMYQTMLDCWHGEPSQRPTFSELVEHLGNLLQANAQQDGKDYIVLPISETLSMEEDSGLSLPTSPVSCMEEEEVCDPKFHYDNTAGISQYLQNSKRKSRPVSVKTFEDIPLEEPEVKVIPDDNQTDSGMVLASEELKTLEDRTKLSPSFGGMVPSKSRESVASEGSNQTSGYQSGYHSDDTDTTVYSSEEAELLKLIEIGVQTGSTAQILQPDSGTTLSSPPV

[6] = target: Serine/threonine-protein kinase B-raf (Homo sapiens, UniProt P15056); experiment: Inhibition of wild type BRAF (unknown origin)
Sequence of Serine/threonine-protein kinase B-raf (Homo sapiens, UniProt P15056) (P15056 whole entry): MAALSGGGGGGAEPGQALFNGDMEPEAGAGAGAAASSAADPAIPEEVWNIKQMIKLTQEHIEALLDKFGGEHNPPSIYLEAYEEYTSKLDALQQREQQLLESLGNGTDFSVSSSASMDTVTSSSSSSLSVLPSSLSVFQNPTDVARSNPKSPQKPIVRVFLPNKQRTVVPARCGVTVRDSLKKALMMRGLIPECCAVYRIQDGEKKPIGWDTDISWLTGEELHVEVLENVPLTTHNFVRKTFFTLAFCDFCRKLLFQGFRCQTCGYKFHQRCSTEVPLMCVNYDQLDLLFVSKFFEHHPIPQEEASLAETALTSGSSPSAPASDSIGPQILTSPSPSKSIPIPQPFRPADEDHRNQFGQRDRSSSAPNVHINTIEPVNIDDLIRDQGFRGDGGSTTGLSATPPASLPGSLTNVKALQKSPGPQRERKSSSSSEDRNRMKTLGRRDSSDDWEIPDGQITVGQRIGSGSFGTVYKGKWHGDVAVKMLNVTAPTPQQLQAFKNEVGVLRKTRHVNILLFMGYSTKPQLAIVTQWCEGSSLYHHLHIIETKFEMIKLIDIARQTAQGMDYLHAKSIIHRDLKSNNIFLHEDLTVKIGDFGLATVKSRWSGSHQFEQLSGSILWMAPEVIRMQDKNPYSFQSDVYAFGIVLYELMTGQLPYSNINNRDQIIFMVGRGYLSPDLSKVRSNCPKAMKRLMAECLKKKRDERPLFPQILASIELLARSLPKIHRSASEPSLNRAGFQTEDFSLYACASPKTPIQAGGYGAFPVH

[7] = target: Serine/threonine-protein kinase B-raf (Homo sapiens, UniProt P15056, V600E); experiment: Inhibition of BRAF V600E mutant (unknown origin)
Sequence of Serine/threonine-protein kinase B-raf (Homo sapiens, UniProt P15056, V600E) (P15056 2-766 V600E limits assumed): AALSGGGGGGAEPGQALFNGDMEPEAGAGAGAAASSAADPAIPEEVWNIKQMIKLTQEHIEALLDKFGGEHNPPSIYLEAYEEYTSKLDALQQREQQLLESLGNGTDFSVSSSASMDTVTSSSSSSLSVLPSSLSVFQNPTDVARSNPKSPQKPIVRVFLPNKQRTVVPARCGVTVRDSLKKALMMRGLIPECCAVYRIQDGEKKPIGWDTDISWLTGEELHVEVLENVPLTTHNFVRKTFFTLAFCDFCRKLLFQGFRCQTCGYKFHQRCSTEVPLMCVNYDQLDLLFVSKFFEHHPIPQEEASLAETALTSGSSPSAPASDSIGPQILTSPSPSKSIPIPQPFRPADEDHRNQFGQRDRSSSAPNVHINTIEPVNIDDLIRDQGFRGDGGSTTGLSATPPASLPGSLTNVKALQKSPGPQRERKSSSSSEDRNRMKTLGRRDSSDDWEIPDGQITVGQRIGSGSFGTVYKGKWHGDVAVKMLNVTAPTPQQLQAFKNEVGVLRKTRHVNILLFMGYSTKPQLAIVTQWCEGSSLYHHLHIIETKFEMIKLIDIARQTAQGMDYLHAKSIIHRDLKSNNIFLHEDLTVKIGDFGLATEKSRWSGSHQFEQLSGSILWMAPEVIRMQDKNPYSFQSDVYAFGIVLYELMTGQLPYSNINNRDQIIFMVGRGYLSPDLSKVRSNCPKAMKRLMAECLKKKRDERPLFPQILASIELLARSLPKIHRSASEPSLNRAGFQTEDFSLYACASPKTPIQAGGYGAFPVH

[8] = target: T1, Vascular endothelial growth factor receptor 2; experiment: Inhibition of human recombinant VEGFR2
A498 [9] = experiment: Cytotoxicity against human A498 cells assessed as reduction in cell viability incubated for 48 hrs by MTT assay; type: functional, cell-based; conditions: A498, 48 h
CAKI-1 = experiment: Cytotoxicity against human CAKI-1 cells assessed as reduction in cell growth incubated for 48 hrs by MTT assay; type: functional, cell-based; conditions: CAKI-1, 48 h
HCT-116 [10] = experiment: Cytotoxicity against human HCT-116 cells assessed as inhibition of cell growth incubated for 48 hrs by MTT assay; type: functional, cell-based; conditions: HCT-116, 48 h
PC-3 [11] = experiment: Cytotoxicity against human PC-3 cells assessed as inhibition of cell growth incubated for 48 hrs by MTT assay; type: functional, cell-based; conditions: PC-3, 48 h
MCF7 [12] = experiment: Cytotoxicity against human MCF7 cells assessed as inhibition of cell growth incubated for 48 hrs by MTT assay; type: functional, cell-based; conditions: MCF7, 48 h
HepG2 [13] = experiment: Cytotoxicity against human HepG2 cells assessed as inhibition of cell growth incubated for 48 hrs by MTT assay; type: functional, cell-based; conditions: HepG2, 48 h
HCT-116 [14] = experiment: Cytotoxicity against human HCT-116 cells assessed as reduction in cell viability measured after 72 hrs by MTT assay; type: functional, cell-based; conditions: HCT-116, 72 h
MCF7 [15] = experiment: Cytotoxicity against human MCF7 cells assessed as reduction in cell viability measured after 72 hrs by MTT assay; type: functional, cell-based; conditions: MCF7, 72 h
[16] = Cytotoxicity against African green monkey Vero cells assessed as inhibition of cell growth incubated for 24 hrs by MTT assay; type: toxicity, cell-based, Chlorocebus sabaeus
[17] = target: T1, Vascular endothelial growth factor receptor 2; experiment: Inhibition of human recombinant VEGFR2 using biotinylated poly-GluTyr (4:1) as susbtrate measured for 1 hr by ELISA method
HepG2 [18] = experiment: Cytotoxicity against human HepG2 cells assessed as reduction in cell viability measured after 72 hrs by MTT assay; type: functional, cell-based; conditions: HepG2, 72 h
[19] = target: T1, Vascular endothelial growth factor receptor 2; experiment: Inhibition of VEGFR2 (unknown origin) incubated for 1 hr in presence of ATP by ELISA method
T47D = experiment: Antiproliferative activity against human T47D cells assessed as growth inhibition at 10 uM after 48 hrs by sulforhodamine B assay relative to control; type: functional; parameters: scale not given: the % may be the effect or the level left
A498 [20] = experiment: Antiproliferative activity against human A498 cells assessed as growth inhibition at 10 uM after 48 hrs by sulforhodamine B assay relative to control; type: functional; parameters: scale not given: the % may be the effect or the level left
HL-60 = experiment: Cytotoxicity against human HL-60 cells assessed as reduction in cell growth; type: functional, cell-based
[21] = Cytotoxicity against human WI-38 cells assessed as reduction in cell growth; type: toxicity, cell-based
[22] = target: T1, Vascular endothelial growth factor receptor 2; experiment: Inhibition of VEGFR2 (unknown origin) by FRET based assay
PC-3 [23] = experiment: Antiproliferative activity against human PC-3 cells assessed as reduction in cell viability incubated for 24 hrs by MTT assay; type: functional, cell-based; conditions: PC-3, 24 h
MCF7 [24] = experiment: Antiproliferative activity against human MCF7 cells assessed as reduction in cell viability incubated for 24 hrs by MTT assay; type: functional, cell-based; conditions: MCF7, 24 h
HepG2 [25] = experiment: Antiproliferative activity against human HepG2 cells assessed as reduction in cell viability incubated for 24 hrs by MTT assay; type: functional, cell-based; conditions: HepG2, 24 h
Histone deacetylase 4 = Histone deacetylase 4 (Homo sapiens, UniProt P56524); experiment: Inhibition of HDAC4 (unknown origin)
NCI-H1650 = experiment: Antiproliferative activity against human NCI-H1650 cells assessed as reduction in cell viability; type: functional, cell-based
NCI-H1975 = experiment: Antiproliferative activity against human NCI-H1975 cells assessed as reduction in cell viability; type: functional, cell-based
NCI-H441 = experiment: Antiproliferative activity against human NCI-H441 cells assessed as reduction in cell viability; type: functional, cell-based
A549 [26] = experiment: Antiproliferative activity against human A549 cells assessed as reduction in cell viability; type: functional, cell-based
[27] = Inhibition of VEGFR (unknown origin); parameters: species or system Homo sapiens
[28] = target: RAF proto-oncogene serine/threonine-protein kinase (Homo sapiens, UniProt P04049); experiment: Inhibition of C-RAF (unknown origin)
Sequence of RAF proto-oncogene serine/threonine-protein kinase (P04049 whole entry): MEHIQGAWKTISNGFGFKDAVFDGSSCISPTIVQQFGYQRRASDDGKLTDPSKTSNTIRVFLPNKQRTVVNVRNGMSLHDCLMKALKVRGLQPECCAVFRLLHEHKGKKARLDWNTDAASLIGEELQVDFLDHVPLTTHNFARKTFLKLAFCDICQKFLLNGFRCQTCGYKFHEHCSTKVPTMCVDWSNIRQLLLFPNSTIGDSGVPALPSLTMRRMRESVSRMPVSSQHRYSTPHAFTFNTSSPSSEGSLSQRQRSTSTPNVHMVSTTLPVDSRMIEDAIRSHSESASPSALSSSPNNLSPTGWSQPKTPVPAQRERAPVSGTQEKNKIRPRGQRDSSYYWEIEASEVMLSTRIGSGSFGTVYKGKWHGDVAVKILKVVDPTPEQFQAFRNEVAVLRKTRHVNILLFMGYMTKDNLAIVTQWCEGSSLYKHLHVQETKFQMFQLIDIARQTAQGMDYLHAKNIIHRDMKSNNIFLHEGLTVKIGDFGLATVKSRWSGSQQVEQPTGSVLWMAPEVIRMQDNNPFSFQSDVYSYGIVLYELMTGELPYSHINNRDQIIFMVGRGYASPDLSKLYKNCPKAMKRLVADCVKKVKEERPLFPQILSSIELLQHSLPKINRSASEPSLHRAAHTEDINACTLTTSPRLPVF

Sequence of Epidermal growth factor receptor (P00533 whole entry): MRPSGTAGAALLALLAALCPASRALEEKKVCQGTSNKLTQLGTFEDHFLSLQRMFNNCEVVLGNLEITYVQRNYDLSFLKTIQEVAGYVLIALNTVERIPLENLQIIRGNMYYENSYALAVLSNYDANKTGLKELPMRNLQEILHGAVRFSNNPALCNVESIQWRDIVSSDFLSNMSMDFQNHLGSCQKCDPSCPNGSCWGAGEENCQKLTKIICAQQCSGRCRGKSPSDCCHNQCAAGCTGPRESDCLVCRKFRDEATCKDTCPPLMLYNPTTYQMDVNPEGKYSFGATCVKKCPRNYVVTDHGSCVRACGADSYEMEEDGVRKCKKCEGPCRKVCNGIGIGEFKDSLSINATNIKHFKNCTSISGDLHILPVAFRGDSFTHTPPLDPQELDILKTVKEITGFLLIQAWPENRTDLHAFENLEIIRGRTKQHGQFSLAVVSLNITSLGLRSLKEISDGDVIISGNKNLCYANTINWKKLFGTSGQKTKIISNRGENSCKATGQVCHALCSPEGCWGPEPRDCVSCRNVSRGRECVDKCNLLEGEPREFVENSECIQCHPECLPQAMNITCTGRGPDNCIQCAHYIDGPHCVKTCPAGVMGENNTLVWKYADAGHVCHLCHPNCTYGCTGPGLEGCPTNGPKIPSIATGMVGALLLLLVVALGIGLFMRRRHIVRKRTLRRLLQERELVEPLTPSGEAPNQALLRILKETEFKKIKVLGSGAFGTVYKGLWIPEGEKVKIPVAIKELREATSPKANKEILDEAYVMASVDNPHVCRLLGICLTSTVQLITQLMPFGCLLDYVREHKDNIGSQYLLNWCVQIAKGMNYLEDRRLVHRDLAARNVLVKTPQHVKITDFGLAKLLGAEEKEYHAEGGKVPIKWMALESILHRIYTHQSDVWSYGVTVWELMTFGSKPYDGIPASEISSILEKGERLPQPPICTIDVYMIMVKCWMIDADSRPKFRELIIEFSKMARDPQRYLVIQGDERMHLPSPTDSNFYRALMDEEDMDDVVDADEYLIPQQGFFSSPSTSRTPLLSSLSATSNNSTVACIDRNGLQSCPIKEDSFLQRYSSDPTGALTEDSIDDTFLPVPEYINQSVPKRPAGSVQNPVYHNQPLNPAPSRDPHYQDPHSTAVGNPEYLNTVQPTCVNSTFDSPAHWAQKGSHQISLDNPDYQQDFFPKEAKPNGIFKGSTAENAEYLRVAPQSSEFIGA

IC50 [1]: 23.2 µM
IC50 (HepG2 [2]): 5.18 µM
IC50 (A549 [3]): 3.14 µM
IC50 (MCF7 [4]): 2.26 µM
SMILES: C/C(=N\N1C(=O)CNC1=S)c1ccc(O)cc1O

IC50 [5]: 0.111 µM
IC50 [6]: 0.071 µM
IC50 [7]: 0.089 µM
SMILES: O=C(CSc1nc2sc3c(c2c(=O)n1-c1ccc(Cl)cc1)CCCC3)NNC(=O)Nc1cccc(C(F)(F)F)c1

IC50 [8]: 0.0524 µM
SMILES: Cc1[nH]c2ncnc(Nc3ccc(NC(=O)Nc4cccc(C(F)(F)F)c4)c(F)c3)c2c1C

SMILES: COc1ccc(/C=N/n2c(-c3cc4ccccc4[nH]3)n[nH]c2=S)cc1
IC50 (A498 [9]): 20.6 µM
IC50 (CAKI-1): 1.63 µM

IC50 [5]: 8.2 µM
SMILES: N=c1cc(N)nc2sc(NC(=O)c3cccs3)nn12
IC50 (HCT-116 [10]): 33.1 µM
IC50 (PC-3 [11]): 7.76 µM
IC50 (MCF7 [12]): 8.45 µM
IC50 (HepG2 [13]): 4.22 µM

IC50 (MCF7 [4]): 0.66 µM
SMILES: Cc1cc(Oc2ncnc3sc4c(c23)CCCCC4)ccc1Cl

IC50 [17]: 0.15 µM
SMILES: CCOC(=O)/C(=N\Nc1ccc(S(=O)(=O)Nc2nc(C)cc(C)n2)cc1)C(=O)NNc1ccccc1
IC50 (HCT-116 [14]): 10.1 µM
IC50 (MCF7 [15]): 13.8 µM
IC50 at 24 h [16]: 59.8 µM
IC50 (HepG2 [18]): 8.97 µM

IC50 [19]: 0.0121 µM
SMILES: CNC(=O)c1nc(Nc2ccc(NC(=O)Nc3cccc(C)c3)cc2)c2ccccc2n1

SMILES: O=C(Nc1ccccc1)Nc1ccc(Nc2ncnc3sc4c(c23)CCOC4)cc1
Activity (T47D): 85.5%
Activity (A498 [20]): 77.65%

IC50 [5]: 0.067 µM
SMILES: C/C(=N\NC(=S)Nc1ccccc1)c1nnn(-c2ccc(F)cc2)c1C
IC50 (HL-60): 1.09 µM
IC50 [21]: 56.6 µM

IC50 [22]: 0.0388 µM
SMILES: O=C(CN1CCN(c2cc(=O)[nH]c3c(-c4ccccc4)cccc23)CC1)Nc1ccc(F)cc1

IC50 (PC-3 [23]): 26.1 µg/mL (≈ 61.1 µM)
IC50 (MCF7 [24]): 30.8 µg/mL (≈ 72.2 µM)
IC50 (HepG2 [25]): 17.2 µg/mL (≈ 40.3 µM)
SMILES: CCn1c(SCC(=O)NNC(=O)c2ccccc2)nc2ccc([N+](=O)[O-])cc2c1=O

IC50 (Histone deacetylase 4): > 10 µM
SMILES: Cc1c2ccc(N(C)c3ccnc(Nc4ccc(C(=O)Nc5ccccc5N)cc4)n3)cc2nn1C

SMILES: Cc1ccc(/C=N/n2c(-c3cc4ccccc4[nH]3)n[nH]c2=S)cc1
IC50 (A498 [9]): 7.36 µM
IC50 (CAKI-1): 6.28 µM

IC50 (NCI-H1650): 5.68 µM
IC50 (NCI-H1975): 6.16 µM
IC50 (NCI-H441): 4.76 µM
IC50 (A549 [26]): 4.22 µM
SMILES: CCOC(=O)c1sc(N2N=C(c3ccc(Cl)cc3Cl)CC2c2ccc(OC)cc2)nc1C (stereo unspecified)

IC50 [5]: 9.4 µM
SMILES: O=C(NC1=NN2C(=O)/C(=C/c3ccco3)N=C2S1)c1cccs1
IC50 (HCT-116 [10]): 5.26 µM
IC50 (PC-3 [11]): 8.01 µM
IC50 (MCF7 [12]): 4.36 µM
IC50 (HepG2 [13]): 6.8 µM

IC50 [27]: 20.6 µM
IC50 [28]: > 100 µM
IC50 [7]: > 100 µM
SMILES: COc1ccc(-n2c(SCC(=O)Nc3ccc(-c4nc5ccccc5[nH]4)cc3)nc3ccccc3c2=O)cc1
